One assay addresses recombinant human CK2 (Homo sapiens (Human), UniProt P68400). The assay is described as follows: CK2 assay (cell-free, 33P-ATP filter plate). It counts as biochemical. The conditions noted are these: 500 nM compound, cell-free assay; read-out: CK2: % inh 500 nM.
Assay [1] relates to HCT-116 human colorectal carcinoma cells. Briefly: Cell-proliferation assay using Alamar Blue dye.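 Also: cells exposed to compound for about 4 days, then Alamar Blue added and dye fluorescence read after about 4 h, compared with medium-only control wells.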 The conditions noted are these: Homo sapiens, HCT-116, second HCT-116 column (c8); read-out: HCT-116 (uM) cell proliferation modulatory activity. The assay is classed as cell-based. For orientation: Alamar Blue is a resazurin reagent that responds to reducing activity.
A further assay deals with recombinant human PIM1 (Homo sapiens (Human), UniProt P11309). The assay is described as follows: PIM-1 kinase activity in cell-free in vitro assay. The settings on record: cell-free assay; for inhibition at 0.5 µM: 500 nM compound, read-out: PIM-1: % inh 500 nM. The assay is classed as biochemical.
For another assay, the system named is K-562. Briefly: Cell proliferation modulatory activity, K-562. The assay is classed as cell-based. The settings on record: Homo sapiens, K562; K-562 cells.
A further assay deals with MV-4-11. Briefly: Cell proliferation modulatory activity, MV-4-11. The assay is classed as cell-based. The conditions noted are these: Homo sapiens, MV4-11; MV-4-11 cells.

pIC50: −log10 of the molar value.

Sequence of recombinant human CK2 (P68400 whole entry): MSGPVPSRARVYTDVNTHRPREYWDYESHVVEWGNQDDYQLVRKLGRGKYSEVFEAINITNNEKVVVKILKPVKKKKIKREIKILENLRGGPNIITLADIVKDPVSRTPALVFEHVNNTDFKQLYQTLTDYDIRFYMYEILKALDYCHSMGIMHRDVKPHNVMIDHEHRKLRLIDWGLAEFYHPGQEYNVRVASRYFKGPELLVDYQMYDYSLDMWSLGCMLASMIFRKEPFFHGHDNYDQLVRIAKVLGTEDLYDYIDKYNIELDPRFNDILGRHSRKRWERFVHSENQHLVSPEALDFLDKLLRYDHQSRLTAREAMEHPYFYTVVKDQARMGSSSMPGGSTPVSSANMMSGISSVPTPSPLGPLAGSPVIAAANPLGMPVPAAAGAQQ
Sequence of recombinant human CK2 (P67870 whole entry partner): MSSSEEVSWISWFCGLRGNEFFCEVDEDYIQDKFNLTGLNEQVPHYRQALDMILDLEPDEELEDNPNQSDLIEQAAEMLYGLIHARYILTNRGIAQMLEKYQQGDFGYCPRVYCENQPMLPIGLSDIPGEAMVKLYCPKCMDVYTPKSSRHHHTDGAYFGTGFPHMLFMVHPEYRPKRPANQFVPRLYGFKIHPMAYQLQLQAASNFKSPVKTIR
Sequence of recombinant human PIM1 (P11309 whole entry): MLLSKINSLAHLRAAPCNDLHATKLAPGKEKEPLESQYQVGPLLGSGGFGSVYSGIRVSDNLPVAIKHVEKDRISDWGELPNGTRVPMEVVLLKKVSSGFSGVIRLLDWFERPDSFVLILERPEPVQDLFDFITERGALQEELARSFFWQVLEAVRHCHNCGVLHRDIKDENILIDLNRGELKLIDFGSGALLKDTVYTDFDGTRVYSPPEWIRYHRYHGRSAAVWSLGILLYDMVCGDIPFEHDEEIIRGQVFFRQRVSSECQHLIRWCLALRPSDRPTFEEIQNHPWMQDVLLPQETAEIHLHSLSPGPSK

Consider `N#Cc1ccc(Nc2nc3cc(C(=O)O)ccc3c3cnccc23)cc1`, for which the values for the inhibition at 0.5 µM at recombinant human CK2 and on recombinant human PIM1 were 95.6% and 67.3%, respectively. Besides, the IC50 (in assay [1]; in the assay with K-562; in the assay with MV-4-11) was over 10 µM in each case. In addition, the pIC50 (usually −log10 of the IC50, conventionally taken in molar units) on recombinant human PIM1 was 6.51.

`N#Cc1ccc2c(c1)nc(NCCCN)c1ccsc12`: the inhibition at 0.5 µM on recombinant human CK2 is 61.4%; at recombinant human PIM1, 76.6%. For the same compound, the IC50 in assay [1] is 2.51 µM; in the assay on K-562, over 10 µM; in the assay with MV-4-11, over 10 µM. The negative logarithm of the IC50 (pIC50) on recombinant human PIM1 was 6.89.

Take `CN(C)CCN(C)c1nc2cc(C#N)ccc2c2sccc12`: the inhibition at 0.5 µM at recombinant human CK2 is 64.1%; at recombinant human PIM1, -3.15%. Further, the IC50 came to 0.511 µM in assay [1], 1.87 µM in the assay on K-562 and 1.07 µM with MV-4-11.

Consider `N#Cc1ccc2c(c1)nc(Cl)c1sccc12`, for which the inhibition at 0.5 µM is -11.5% on recombinant human CK2 and -23.9% at recombinant human PIM1. Further, the IC50 (in assay [1]; with K-562; in the assay with MV-4-11) was over 10 µM each time.

For the compound `CN1CCC(Nc2nc3cc(C#N)ccc3c3sccc23)CC1`, the inhibition at 0.5 µM on recombinant human CK2 is -8.22%; on recombinant human PIM1, 59.1%. Also, the figures for the IC50 (in assay [1]; in the assay with K-562; in the assay with MV-4-11) were 3.44 µM, over 10 µM and 7.52 µM, respectively. In addition, at recombinant human PIM1, the pIC50 was 5.99.

Turning to `Cc1nccn1CCNc1nc2cc(-c3nnn[nH]3)ccc2c2sccc12`, the values for the inhibition at 0.5 µM at recombinant human CK2 and on recombinant human PIM1 were 62.1% and 81.5%, respectively. Moreover, the IC50 (in assay [1]; in the assay with K-562; in the assay with MV-4-11) was over 10 µM in each case. Also, the pIC50 at recombinant human PIM1 was 6.92.

On to `N#Cc1ccc2c(c1)[nH]c(=O)c1cscc12`, for which the inhibition at 0.5 µM on recombinant human CK2 is -0.336%; on recombinant human PIM1, -26.7%. For the same compound, the IC50 (in assay [1]; with K-562; in the assay on MV-4-11) was over 10 µM throughout.

On to `O=C(O)c1ccc2c(c1)nc(Nc1cccc(F)c1)c1cnccc12`, for which the inhibition at 0.5 µM was 35.8% at recombinant human CK2 and 55.4% on recombinant human PIM1. The IC50 (in assay [1]; with K-562; in the assay with MV-4-11) was over 10 µM throughout. Also, the pIC50 at recombinant human PIM1 was 6.13.

In the case of `N#Cc1ccc2c(c1)nc(NCCC1CCCN1)c1ccsc12` (centres unmarked), the inhibition at 0.5 µM on recombinant human CK2 was 37.1%; on recombinant human PIM1 it was 36.2%. The results for the IC50 (in assay [1]; in the assay on K-562; in the assay with MV-4-11) were 1.87 µM, over 10 µM and 2.82 µM, respectively.

Take `N#Cc1ccc2c(c1)nc(NCC1CCCN1)c1ccsc12` (centres unmarked): the inhibition at 0.5 µM on recombinant human CK2 was -23.8%; on recombinant human PIM1, 14.1%. Moreover, the IC50 in assay [1] is 2.73 µM; in the assay on K-562, over 10 µM; in the assay on MV-4-11, 2.44 µM.

For the compound `O=C(O)c1ccc2c(c1)nc(Nc1ccc(F)c(Cl)c1)c1nccnc12`, the inhibition at 0.5 µM was 36.5% at recombinant human CK2 and -0.602% on recombinant human PIM1. The IC50 (in assay [1]; in the assay on K-562; in the assay on MV-4-11) was over 10 µM each time.

Take `N#Cc1ccc2c(c1)nc(NCCc1ccccn1)c1ccsc12`: the inhibition at 0.5 µM was found to be 5.18% at recombinant human CK2 and 10.6% at recombinant human PIM1. In addition, the IC50 (in assay [1]; in the assay with K-562; with MV-4-11) was over 10 µM throughout.

Regarding `CN(C)CCNc1nc2cc(-c3nnc[nH]3)ccc2c2sccc12`, the inhibition at 0.5 µM was -76.9% at recombinant human CK2 and -2.14% at recombinant human PIM1. Further, the IC50 in assay [1] is over 10 µM; in the assay with K-562, over 10 µM; in the assay on MV-4-11, 6.04 µM.

As for `CC(C)(C)OC(=O)NCCCNc1nc2cc(C#N)ccc2c2sccc12`, the figures for the inhibition at 0.5 µM on recombinant human CK2 and on recombinant human PIM1 were -11.5% and -30.8%, respectively. Moreover, the IC50 (in assay [1]; in the assay with K-562; in the assay with MV-4-11) was over 10 µM each time.

For `c1cc2c(NCC3CCCN3)nc3cc(-c4nnn[nH]4)ccc3c2s1` (centres unmarked), the inhibition at 0.5 µM on recombinant human CK2 is 86.1%; at recombinant human PIM1, 93.4%. Also, the IC50 (in assay [1]; with K-562; with MV-4-11) was over 10 µM in each case. Besides, at recombinant human PIM1, the negative logarithm of the IC50 (pIC50) is 7.34.

As to `CN1CCCC1CNc1nc2cc(C#N)ccc2c2sccc12` (centres unmarked), the results for the inhibition at 0.5 µM at recombinant human CK2 and on recombinant human PIM1 were 0.724% and 8.14%, respectively. The IC50 is 4.41 µM in assay [1], 6.5 µM with K-562 and 3.74 µM in the assay with MV-4-11.

`Clc1ccc(Nc2nc3cc(-c4nnn[nH]4)ccc3c3cscc23)cc1`: the inhibition at 0.5 µM was found to be 39.5% at recombinant human CK2 and 15.2% on recombinant human PIM1. The results for the IC50 (in assay [1]; in the assay with K-562; with MV-4-11) were over 10 µM, over 10 µM and 6.44 µM, respectively.

`O=C(O)c1ccc2c(c1)nc(Nc1cccc(CO)c1)c1ccncc12`: the inhibition at 0.5 µM amounted to 97.5% on recombinant human CK2 and 64.7% on recombinant human PIM1. In addition, the IC50 (in assay [1]; in the assay on K-562; in the assay on MV-4-11) was over 10 µM throughout. For the same compound, the negative-log IC50 (pIC50) on recombinant human PIM1 was 6.49.

Regarding `CCN1CCC[C@H]1CNc1nc2cc(-c3nnn[nH]3)ccc2c2sccc12`, the inhibition at 0.5 µM at recombinant human CK2 was determined as 59.8%; on recombinant human PIM1, 84.1%. Further, the IC50 (in assay [1]; with K-562; in the assay on MV-4-11) was over 10 µM throughout. Moreover, the pIC50 at recombinant human PIM1 was 6.93.

On to `NC1CCN(c2nc3cc(-c4nnn[nH]4)ccc3c3sccc23)C1` (centres unmarked), for which the inhibition at 0.5 µM on recombinant human CK2 came out at 30.8%; at recombinant human PIM1 it was 63.6%. Besides, the results for the IC50 (in assay [1]; with K-562; in the assay with MV-4-11) were over 10 µM, over 10 µM and 1.15 µM, respectively. Also, the pIC50 on recombinant human PIM1 was 6.31.

As for `O=C(O)c1ccc2c(c1)nc(Nc1cccc3ncccc13)c1ccncc12`, the inhibition at 0.5 µM on recombinant human CK2 came to 101%; on recombinant human PIM1 it was 79.1%. For the same compound, the IC50 (in assay [1]; in the assay on K-562; in the assay on MV-4-11) was over 10 µM each time. The pIC50 on recombinant human PIM1 is 6.55.

With `CC(=O)N1CCN(c2nc3cc(C#N)ccc3c3sccc23)CC1`, the inhibition at 0.5 µM at recombinant human CK2 came out at 3.48%; at recombinant human PIM1, 7.13%. Besides, the IC50 (in assay [1]; with K-562; in the assay with MV-4-11) was over 10 µM throughout.

As to `CCN(CC)CCNc1nc2cc(-c3nnn[nH]3)ccc2c2sccc12`, the inhibition at 0.5 µM at recombinant human CK2 was found to be 52.6%; on recombinant human PIM1 it was 87.3%. In addition, the IC50 (in assay [1]; in the assay with K-562; in the assay with MV-4-11) was over 10 µM each time. Further, at recombinant human PIM1, the pIC50 was 6.90.

In the case of `COC(=O)c1ccc2c(c1)nc(NCCN1CCCC1)c1ccncc12`, the figures for the inhibition at 0.5 µM at recombinant human CK2 and at recombinant human PIM1 were 8.15% and 17.8%, respectively. Moreover, the IC50 was 0.9 µM in assay [1], 1.25 µM in the assay on K-562 and 0.368 µM in the assay with MV-4-11.

For `COC(=O)c1ccc2c(c1)nc(NCCn1cccc1)c1ccncc12`, the inhibition at 0.5 µM on recombinant human CK2 was 9.01%; on recombinant human PIM1 it was -34.6%. Further, the IC50 in assay [1] was 9.97 µM; in the assay on K-562 it was over 10 µM; in the assay with MV-4-11, 2.83 µM.

Regarding `COC(=O)c1ccc2c(c1)nc(NCCOC(C)C)c1ccncc12`, the inhibition at 0.5 µM at recombinant human CK2 turned out to be 15.6%; on recombinant human PIM1 it was 39.1%. Moreover, the IC50 in assay [1] was over 10 µM; in the assay on K-562, over 10 µM; in the assay on MV-4-11, 2.94 µM.

`CN(C)CCCN(C)c1nc2cc(C#N)ccc2c2sccc12`: the inhibition at 0.5 µM was -4.72% at recombinant human CK2 and 15.3% on recombinant human PIM1. Further, the IC50 in assay [1] came out at 3.92 µM; in the assay on K-562 it was 7.98 µM; with MV-4-11, 3.55 µM.

As to `CN1CCC(Nc2nc3cc(-c4nnn[nH]4)ccc3c3sccc23)CC1`, the results for the inhibition at 0.5 µM on recombinant human CK2 and on recombinant human PIM1 were 1.28% and 83.9%, respectively. Moreover, the IC50 (in assay [1]; in the assay with K-562; in the assay on MV-4-11) was over 10 µM in each case. Further, at recombinant human PIM1, the pIC50 was 6.79.

On to `COc1ccc(Nc2nc3cc(C(=O)O)ccc3c3cnccc23)cc1OC`, for which the figures for the inhibition at 0.5 µM on recombinant human CK2 and on recombinant human PIM1 were 98.5% and 59.3%, respectively. For the same compound, the IC50 (in assay [1]; with K-562; in the assay on MV-4-11) was over 10 µM each time. Also, the pIC50 at recombinant human PIM1 is 6.51.

On to `N#Cc1ccc2c(c1)nc(N1CCC(c3cccnc3)C1)c1ccsc12` (centres unmarked), for which the inhibition at 0.5 µM at recombinant human CK2 is 0.642%; at recombinant human PIM1, -11.2%. Also, the IC50 (in assay [1]; in the assay on K-562; in the assay with MV-4-11) was over 10 µM throughout.

With `Fc1cc(Cl)cc(Nc2nc3cc(-c4nnn[nH]4)ccc3c3cscc23)c1`, the inhibition at 0.5 µM on recombinant human CK2 was 57.3%; at recombinant human PIM1 it was 11.4%. Also, the IC50 (in assay [1]; in the assay with K-562; in the assay on MV-4-11) was over 10 µM throughout.

For `c1ccc(CNc2nc3cc(-c4nnn[nH]4)ccc3c3sccc23)nc1`, the values for the inhibition at 0.5 µM on recombinant human CK2 and on recombinant human PIM1 were 27.9% and 16.8%, respectively. For the same compound, the IC50 in assay [1] is over 10 µM; in the assay with K-562, over 10 µM; with MV-4-11, 1 µM.

With `N#Cc1ccc2c(c1)nc(N1CCC(N)C1)c1ccsc12` (centres unmarked), the inhibition at 0.5 µM at recombinant human CK2 is -2.47%; at recombinant human PIM1, 9.1%. In addition, the IC50 (in assay [1]; with K-562; in the assay with MV-4-11) was over 10 µM throughout.

Consider `N#Cc1ccc2c(c1)nc(NCCn1cccc1)c1ccsc12`, for which the inhibition at 0.5 µM at recombinant human CK2 was -22.3%; at recombinant human PIM1 it was -25.6%. Moreover, the IC50 in assay [1] is over 10 µM; in the assay on K-562 it was 6.07 µM; in the assay with MV-4-11, over 10 µM.

`N#Cc1ccc2c(c1)nc(NCc1ccccn1)c1ccsc12`: the inhibition at 0.5 µM on recombinant human CK2 was determined as 100%; on recombinant human PIM1, 2.17%. Further, the IC50 (in assay [1]; in the assay on K-562; in the assay on MV-4-11) was over 10 µM in each case.

(Values after US8168651B2, “Protein kinase modulators” (Cylene Pharmaceuticals, Inc., priority 2008, dated 2012).)
